Tests used:
alkaline phosphatase = assay: Control: alkaline phosphatase activity in solution; type: biochemical
EphA4 = EphA4 (Mus musculus, UniProt Q03137); assay: ELISA, EphA4 AP binding to immobilized ephrin Fc fusion proteins; set-up: made in house; conditioned culture medium used
Procedure: FIGS. 3A and 3B. A. Ephrin-A5 AP binding to immobilized EphA receptor Fc fusion proteins and ephrin-B2 AP binding to immobilized EphB receptor Fc fusion proteins were measured in the presence of the indicated concentrations of compounds 1 and 2. […] Error bars indicate standard error from 3 measurements. B. IC50 values for inhibition of EphA4 AP and EphA2 AP binding to the indicated immobilized ephrins by compounds 1 and 2.
ELISA Assays and K, Determination—Protein A-coated wells (Pierce Biotecnology, Rockford, Ill.) were used to immobilize ephrin Fc fusion proteins (R&D Systems, Minneapolis, Minn.). Compounds at different concentrations were incubated with EphA4 AP (Cheng and Flanagan, (1994) Cell 79(1), 157-168) or EphA2 AP (Koolpe et al. (2002) J Biol Chem 277(49), 46974-46979) for 3 hours. Alternatively, Eph receptor Fc fusion proteins were immobilized on protein A-coated wells and ephrin-A5 AP (Menzel et al. (2001) Developmental Biology 230(1), 74-88) or ephrin-B2 AP (GeneHunter, Nashville, Tenn.) were added with the compounds. The amount of bound AP-fusion protein was quantified using pNPP as the substrate. Alkaline phosphatase activity from wells with Fc only was subtracted as background. […]

retinal neurons = assay: Growth cone collapse assay, nasal retina explants; type: cell-based, chicken; details: for ephrin-A5 Fc induced growth cone collapse: 1 μg/mL ephrin-A5 Fc, 400 μM compound, 5 μM KYL peptide; for shape of unstimulated growth cones: concentrations as high as 400 μM
Procedure: FIGS. 8A-8F. Compounds 1 and 2 block EphA4-dependent growth cone collapse in retinal neurons. A. Explants from embryonic day 6 chicken embryonic were preincubated with 5 μM KYL peptide for 15 min, stimulated for 30 min with 1 μg/mL ephrin-A5 Fc or Fc as a control in the continued presence of the peptide, and stained with rhodamine-phalloidin to label filamentous actin. B. Histogram showing the mean percentages of collapsed growth cones. Growth cones were scored as collapsed when no lamellipodia or filopodia were visible at the tip of the neurite. Approximately 30-200 growth cones per condition were scored in each experiment and error bars indicate standard error from 3 independent experiments. C-F. Experiments were performed as in (A), except that retinal explants were treated with 400 μM compound 1 (C,D) or compound 2 (E,F). Approximately 80-250 growth cones per condition were scored in each experiment, and error bars indicate standard error from 3 experiments. Collapsed growth cones under different conditions were compared to those in the Fc control condition by one-way ANOVA and Dunnett's post test. *P<0.05 and **P<0.01. Scale bars in (A), (C), (E)=[…].
Growth Cone Collapse Assay—Nasal retina explants from embryonic day 6 chicken embryos were cultured on coverslips coated with 200 μg/mL poly-L-lysine and 20 μg/mL lamining for 12 to 24 hours in DMEM/F-12 culture medium containing 10% FBS and 0.4% methylcellulose. Three hours before adding the Fc fusion proteins, the medium was changed to DMEM/F-12 without methylcellulose. The explants were incubated for 15 min with the KYL peptide or the chemical compounds and then stimulated for 30 min with 1 μg/mL preclustered ephrin-A5 Fc or Fc as a control. The cultures were fixed for 30 min in 4% paraformaldehyde/4% sucrose in phosphate buffered saline (PBS), permeabilized in 0.1% Triton X-100 in PBS and stained with rhodamine-conjugated phalloidin (Invitrogen, Carlsbad, Calif.). Cells were photographed under a fluorescence microscope and growth cones where scored in a blinded manner as collapsed when no lamellipodia or filopodia were present at the tip of the neurite.

Sequence of EphA4 (Q03137 20-547 limits assumed): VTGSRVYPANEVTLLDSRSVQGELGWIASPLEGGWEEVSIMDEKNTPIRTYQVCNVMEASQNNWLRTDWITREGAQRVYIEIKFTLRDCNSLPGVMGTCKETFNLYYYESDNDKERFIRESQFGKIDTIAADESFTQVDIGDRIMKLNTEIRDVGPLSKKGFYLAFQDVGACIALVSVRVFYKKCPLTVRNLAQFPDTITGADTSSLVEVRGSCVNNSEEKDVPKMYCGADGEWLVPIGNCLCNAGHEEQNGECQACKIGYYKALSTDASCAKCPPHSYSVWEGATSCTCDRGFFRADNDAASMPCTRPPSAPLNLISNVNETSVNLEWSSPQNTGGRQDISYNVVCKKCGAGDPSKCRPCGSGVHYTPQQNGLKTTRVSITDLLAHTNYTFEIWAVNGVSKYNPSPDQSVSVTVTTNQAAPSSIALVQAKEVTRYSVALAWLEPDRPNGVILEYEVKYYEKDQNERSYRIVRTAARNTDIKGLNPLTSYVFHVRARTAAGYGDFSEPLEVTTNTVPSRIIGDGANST

SMILES | inhibition of alkaline phosphatase activity (control) (alkaline phosphatase) | inhibition of binding of different ephrin ligands to EphA4 (EphA4) | ephrin-A5 Fc induced growth cone collapse (retinal neurons) | ephrin-A5 Fc induced growth cone collapse (retinal neurons; listed as Compound 1) | shape of unstimulated growth cones (retinal neurons)
Cc1ccc(C)n1-c1ccc(C(=O)O)c(O)c1 [compound 1, 4-(2,5-dimethyl-pyrrol-1-yl)-2-hydroxy-benzoic acid] | does not inhibit | inhibited binding of most ephrin ligands to EphA4, except for ephrin-A4 and ephrin-B2 | block | blocked | neither the KYL peptide nor the two compounds at concentrations as high as 400 μM affected the shape
Cc1ccc(C)n1-c1ccc(O)c(C(=O)O)c1 [compound 2, 5-(2,5 dimethyl-pyrrol-1-yl)-2-hydroxy-benzoic acid] |  | inhibited binding of most ephrin ligands to EphA4, except for ephrin-A4 and ephrin-B2 | block |  | neither the KYL peptide nor the two compounds at concentrations as high as 400 μM affected the shape

Reference: patent US20100256214A1, “EPH RECEPTOR LIGANDS AND METHODS OF USE” (Burnham Institute for Medical Research, priority 2009, published 2010)
